This is an account of results in patent USRE40278E1, “Heterocyclic amines having central nervous system activity” (priority 1993, dated 2008).

One assay concerns the target T1, 5-HT1DA-Clone (Homo sapiens, UniProt P28221).
T1 construct: expressed in transfected cells
The assay is described as follows: receptor binding assay, 5-HT1DA clone (5HT ligand). As for the experimental part: (§1) Compounds of Example 4 (Formula I where R1 and R2 are propyl, Y is hydrogen and X is —OCH3) were evaluated in an receptor binding assay (5HT Ligand) for calculation of IC50 values and Ki (nM) values. Receptor binding assays are well known tests for evaluating compounds for activity as described in “Cloning and Pharmacological Characterization of a Novel Human […] Receptor Sub-Type”, Mol. Pharm., 42 439-44 (1992), herein incorporated by reference.

The target in the next assay is T2, 5-HT1DB-Clone (Homo sapiens, UniProt P28222).
T2 construct: expressed in transfected cells
T2 sequence (P28222 whole entry): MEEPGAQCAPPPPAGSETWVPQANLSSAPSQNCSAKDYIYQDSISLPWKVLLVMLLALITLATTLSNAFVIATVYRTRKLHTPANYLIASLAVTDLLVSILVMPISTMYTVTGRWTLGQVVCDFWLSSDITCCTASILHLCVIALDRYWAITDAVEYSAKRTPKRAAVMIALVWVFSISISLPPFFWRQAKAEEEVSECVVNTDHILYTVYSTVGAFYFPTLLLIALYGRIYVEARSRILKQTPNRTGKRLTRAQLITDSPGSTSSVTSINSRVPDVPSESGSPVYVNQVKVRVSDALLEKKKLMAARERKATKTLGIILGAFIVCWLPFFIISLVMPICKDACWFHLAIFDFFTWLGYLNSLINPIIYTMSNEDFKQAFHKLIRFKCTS
Briefly: receptor binding assay, 5-HT1DB clone (5HT ligand). On the procedure: as §1

A further assay deals with T3, 5-HT1A-Clone (Homo sapiens, UniProt P08908).
T3 construct: expressed in transfected cells
T3 sequence (P08908 1-422): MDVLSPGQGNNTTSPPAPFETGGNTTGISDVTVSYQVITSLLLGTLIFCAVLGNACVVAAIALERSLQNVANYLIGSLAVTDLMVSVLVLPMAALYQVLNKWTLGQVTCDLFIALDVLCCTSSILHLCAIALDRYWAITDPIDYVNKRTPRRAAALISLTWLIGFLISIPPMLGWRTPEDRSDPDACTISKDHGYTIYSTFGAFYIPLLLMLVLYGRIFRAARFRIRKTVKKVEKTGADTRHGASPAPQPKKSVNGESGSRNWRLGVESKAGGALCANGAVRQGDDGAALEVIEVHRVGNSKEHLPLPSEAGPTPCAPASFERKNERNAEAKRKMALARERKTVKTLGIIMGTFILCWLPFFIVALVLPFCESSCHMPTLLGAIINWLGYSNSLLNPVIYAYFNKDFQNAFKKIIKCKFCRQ
The assay is described as follows: receptor binding assay, 5-HT1A clone (DPAT ligand). As for the experimental part:
as §1

Assay [1] concerns aggressive behavior of isolated male CF-1 mice. The assay is described as follows: isolation-induced aggression assay (latency to attack an intruder mouse). The following applies: isolated male CF-1 mice dosed p.o., intruder introduced thirty minutes later, n=6. It counts as in vivo. As for the experimental part: Compounds of the subject invention were evaluated in an isolation-induced aggression assay to measure their ability to control or arrest aggressive behavior as measured against a saline “Control”. Male CF-1 mice (Charles River Labs) were housed singly in wire cage drawers for several weeks of isolation and aggression training. After this, the isolated mouse (weighing 30-50 g) initiated an “attack” whenever an intruder mouse was placed into his cage. Intruders were male CF-1 Charles River mice, about the same size as isolated mice and housed in groups of 12 per cage. For drug testing, the isolated mice were dosed orally (p.o.) with drug or 0.25% methylcellulose vehicle. Thirty minutes later, an intruder mouse was introduced and the latency to attack was recorded. Treatment groups (n=6), including a positive control, were tested by an observer blinded to the treatments, and there was an additional non-blinded vehicle group.

T1 sequence (P28221 whole entry): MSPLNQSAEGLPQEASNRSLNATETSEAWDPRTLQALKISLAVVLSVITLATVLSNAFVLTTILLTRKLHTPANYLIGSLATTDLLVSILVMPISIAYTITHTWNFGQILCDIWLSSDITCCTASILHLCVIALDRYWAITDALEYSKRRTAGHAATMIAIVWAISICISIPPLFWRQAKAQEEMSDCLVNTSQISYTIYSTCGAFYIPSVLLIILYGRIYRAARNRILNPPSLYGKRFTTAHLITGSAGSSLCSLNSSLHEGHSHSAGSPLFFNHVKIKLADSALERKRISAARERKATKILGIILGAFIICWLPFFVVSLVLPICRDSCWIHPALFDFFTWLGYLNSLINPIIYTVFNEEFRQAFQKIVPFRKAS

On to `CCCN(CCC)C1Cc2cccc3c2n(c(=O)n3OC)C1` (racemic) [Ex. 4 Racemate], for which the values for the Ki on 5-HT1DA-Clone and at 5-HT1DB-Clone were 15.2 nM and 7.17 nM, respectively. The “receptor selectivity (in words)” value at 5-HT1DB-Clone (5-HT1DB versus 5-HT1DA, conclusion from the Ki table) is “selective for the 5HT1DB receptor”.
In the case of `CCCN(CCC)[C@@H]1Cc2cccc3c2n(c(=O)n3OC)C1` [Ex. 4 R-Enantiomer, (R)-5-Dipropylamino-1-methoxy-5,6-dihydro-4H-imidazo[4,5,1-ij]quinolin-2(1H)-one], the Ki is 38 nM at 5-HT1DA-Clone, 58 nM on 5-HT1DB-Clone and 97 nM at 5-HT1A-Clone. The “enantiomer that carries the activity (in words)” value on 5-HT1A-Clone (comparison of R- and S-enantiomer, conclusion from the Ki table) is reported as “the activity resides in the R-enantiomer”.
At 5-HT1A-Clone, `CCCN(CCC)[C@H]1Cc2cccc3c2n(c(=O)n3OC)C1` [Ex. 4 S-Enantiomer] gave a Ki of 904 nM.
Regarding `CN[C@@H]1Cc2cccc3c2n(c(=O)n3OC)C1` [Example 1, (R)-5-Methylamino-1-methoxy-5,6-dihydro-4H-imidazo[4,5,1-ij]quinolin-2(1H)-one], in assay [1], the “latency to attack” value worked out at 600 s.
